9 compounds from ChEMBL document CHEMBL3580595, “Design, synthesis and biological evaluation of novel trimethylpyrazine-2-carbonyloxy-cinnamic acids as potent cardiovascular agents” (Medchemcomm, 2014) can be followed below.

The nature of assay [1]: Anti-platelet activity in rabbit platelet-rich plasma assessed as inhibition of ADP-induced platelet aggregation at 100 uM incubated for 5 mins at 37 degC by aggregometry. To be noted: Oryctolagus cuniculus. It counts as functional.
A short description of assay [2]: Anti-platelet activity in rabbit platelet-rich plasma assessed as inhibition of ADP-induced platelet aggregation at 50 uM incubated for 5 mins at 37 degC by aggregometry. It is filed as functional. The following applies: Oryctolagus cuniculus.
A short description of assay [3]: Anti-platelet activity in rabbit platelet-rich plasma assessed as inhibition of ADP-induced platelet aggregation at 25 uM incubated for 5 mins at 37 degC by aggregometry. It is filed as functional. To be noted: Oryctolagus cuniculus.
The nature of assay [4]: Anti-platelet activity in rabbit platelet-rich plasma assessed as inhibition of ADP-induced platelet aggregation at 12.5 uM incubated for 5 mins at 37 degC by aggregometry. It is filed as functional. To be noted: Oryctolagus cuniculus.
A short description of assay [5]: Anti-platelet activity in rabbit platelet-rich plasma assessed as inhibition of ADP-induced platelet aggregation incubated for 5 mins at 37 degC by aggregometry. It counts as functional. The following applies: Oryctolagus cuniculus.
A short description of assay [6]: Cytoprotective activity against H2O2-induced cytotoxicity in human EAhy926 cells at 100 uM pre-incubated for 24 hrs before H2O2 challenge for 12 hrs by MTT assay. It counts as functional, EA.hy 926.
Assay [7] in a line: Cytoprotective activity against H2O2-induced cytotoxicity in human EAhy926 cells at 50 uM pre-incubated for 24 hrs before H2O2 challenge for 12 hrs by MTT assay. It is filed as functional, EA.hy 926.
The nature of assay [8]: Cytoprotective activity against H2O2-induced cytotoxicity in human EAhy926 cells at 25 uM pre-incubated for 24 hrs before H2O2 challenge for 12 hrs by MTT assay. It is filed as functional, EA.hy 926.
Assay [9] is described as follows: Cytoprotective activity against H2O2-induced cytotoxicity in human EAhy926 cells at 12.5 uM pre-incubated for 24 hrs before H2O2 challenge for 12 hrs by MTT assay. It counts as functional, EA.hy 926.
Assay [10] is described as follows: Cytoprotective activity against H2O2-induced cytotoxicity in human EAhy926 cells pre-incubated for 24 hrs before H2O2 challenge for 12 hrs by MTT assay. It counts as functional, cell-based. The following applies: EA.hy 926.
Assay [11] can be described thus: Potency index, ratio of EC50 for lipoic acid to EC50 for test compound for cytoprotective activity against H2O2-induced cytotoxicity in human EAhy926 cells pre-incubated for 24 hrs before H2O2 challenge for 12 hrs by MTT assay. It is filed as functional.

Take `CCOC(=O)/C=C/c1ccc(OC(=O)c2nc(C)c(C)nc2C)c(O)c1`: the inhibition at 100 µM in assay [1] was determined as 58.4%. For the same compound, the inhibition at 50 µM in assay [2] is 37.9%. Further, in assay [3], the inhibition at 25 µM was determined as 36.4%. For the same compound, the inhibition at 12.5 µM in [4] came out at 22%. Also, the IC50 in [5] is 77.4 µM. Further, the Activity in [6] worked out at 375.3%; in assay [7] it was 210.8%; in assay [8], 207%; in [9], 75.7%. In assay [10], it took 1.7 µM to reach a half-maximal effect (EC50). In [11], the “Ratio EC50” value amounted to 40.

`COc1cc(/C=C/C(=O)O)ccc1OC(=O)c1nc(C)c(C)nc1C`: in assay [1], the inhibition at 100 µM was found to be 73.2%. Moreover, the inhibition at 50 µM in [2] turned out to be 46.2%. In addition, the inhibition at 25 µM in assay [3] amounted to 22.8%. In assay [4], the inhibition at 12.5 µM came to 60.6%. Also, the IC50 in assay [5] turned out to be 44.6 µM. Further, the Activity in [6] is recorded as 55.4%; in assay [7], 49.1%; in assay [8], 40.3%; in assay [9], 38.7%. In [10], the 50% effective concentration (EC50) is 69.4 µM.

In the case of `CCOC(=O)/C=C/c1ccc(OC(=O)c2nc(C)c(C)nc2C)c(OC)c1`, the inhibition at 100 µM in assay [1] was determined as 64.4%. The inhibition at 50 µM in assay [2] was 49.9%. The inhibition at 25 µM in [3] worked out at 37.2%. In addition, the inhibition at 12.5 µM in [4] was found to be 31%. For the same compound, the concentration for half-maximal inhibition (IC50) in [5] is 58.4 µM. Also, the Activity in assay [6] was found to be 71.6%; in [7] it was 69.7%; in assay [8] it was 53.3%; in assay [9], 52.4%. The compound also showed an EC50 in assay [10] of 38.6 µM.

With `COc1cc(/C=C/C(=O)O)cc(OC)c1OC(=O)c1nc(C)c(C)nc1C`, in assay [1], the inhibition at 100 µM was determined as 52.1%. The inhibition at 50 µM in assay [2] came out at 51.2%. For the same compound, in assay [3], the inhibition at 25 µM came out at 17.4%. Besides, the inhibition at 12.5 µM in [4] was found to be 12%. In addition, the IC50 in [5] came out at 82.3 µM. Further, the Activity in assay [6] is on record as 163%; in [7] it was 96.6%; in [8], 24%; in [9], 5.7%. Further, the concentration giving a half-maximal response (EC50) in [10] was found to be 34.7 µM.

In the case of `CCOC(=O)/C=C/c1ccccc1OC(=O)c1nc(C)c(C)nc1C`, in assay [1], the inhibition at 100 µM came out at 42.4%. Further, the inhibition at 50 µM in [2] was determined as 39%. Besides, the inhibition at 25 µM in assay [3] was 16.6%. Moreover, the inhibition at 12.5 µM in assay [4] is 11.8%. In assay [5], the IC50 was determined as 110 µM. The Activity is given as 40.9% in assay [6], 36.9% in [7], 17.8% in [8] and 9.6% in [9]. Besides, the midpoint of the response in assay [10], the EC50, lay at 108 µM.

With `CCOC(=O)/C=C/c1cccc(OC(=O)c2nc(C)c(C)nc2C)c1`, the inhibition at 100 µM in [1] turned out to be 69.4%. Besides, the inhibition at 50 µM in assay [2] is 59.6%. Further, in assay [3], the inhibition at 25 µM came out at 62.2%. Further, the inhibition at 12.5 µM in assay [4] is 25.1%. Moreover, the IC50 in [5] was 35.8 µM. Also, the Activity in assay [6] stood at 47%; in [7] it was 39.5%; in [8], 34.2%; in assay [9], 27.9%. This compound also showed a half-maximal effective concentration (EC50) in assay [10] of 92.6 µM.

In the case of `CCOC(=O)/C=C/c1cc(OC)ccc1OC(=O)c1nc(C)c(C)nc1C`, the inhibition at 100 µM in assay [1] turned out to be 60.7%. In addition, the inhibition at 50 µM in assay [2] was 72.9%. Also, the inhibition at 25 µM in [3] was 73.9%. Also, the inhibition at 12.5 µM in assay [4] worked out at 70.5%. Also, in assay [5], the IC50 is 196 µM. Besides, the Activity is listed as 46.2% in [6], 27.8% in assay [7], 23.4% in assay [8] and 15.9% in assay [9]. Besides, the EC50 in assay [10] was determined as 105 µM.

In the case of `CCOC(=O)/C=C/c1ccc(OC(=O)c2nc(C)c(C)nc2C)cc1`, the inhibition at 100 µM in [1] was determined as 20.5%. In addition, the inhibition at 50 µM in assay [2] is 32.2%. Moreover, in assay [3], the inhibition at 25 µM was 39.1%. Moreover, the inhibition at 12.5 µM in assay [4] worked out at 68%. Besides, the IC50 in [5] turned out to be 24.4 µM. The Activity in [6] is on record as 96.1%; in assay [7] it was 62.6%; in assay [8] it was 58.8%; in assay [9], 42.7%. For the same compound, in assay [10], the EC50 is 34.9 µM.

Consider `Cc1nc(C)c(C(=O)Oc2ccc(Cl)cc2/C=C/C(=O)O)nc1C`, for which, in assay [1], the inhibition at 100 µM stood at 74.5%. In addition, in assay [2], the inhibition at 50 µM was found to be 37%. Further, in assay [3], the inhibition at 25 µM worked out at 38.1%. Further, the inhibition at 12.5 µM in [4] stood at 30%. In addition, the half-maximal inhibitory concentration (IC50) in assay [5] is 57.2 µM. For the same compound, the Activity in [6] is reported as 52.2%; in assay [7], 23.7%; in assay [8], 26%; in assay [9], 6.9%. This compound also returned a concentration giving a half-maximal response (EC50) in assay [10] of 95.2 µM.
